In patent US20150094328A1, “4-Azaindole Derivatives” (Eisai R&D Management Co., Ltd., priority 2013, published 2015):

Test system: male Crlj: WI rats
Assay: Morris water maze test in ibotenic acid-induced learning disability model
Format: in vivo, rat
Method: Ibotenic acid at 5 μg/0.5 μL was injected into both basal nuclei of 8-week old male Crlj: WI rats, and a Morris water maze test was performed 10-14 days after ibotenic acid injection. It has been reported that rats in which basal forebrain was lesioned by ibotenic acid injection show learning disability in the Morris water maze test. (Pharmacopsychiat, 1999, 32, 242-247). The test is considered a model of spatial learning and memory.
Learning trials were performed twice a day at an interval of 3 hours for 4 days (8 times in total), and probe trials were performed once the day after completion of the learning trials. Each test compound was dissolved in a 0.5% methylcellulose in water and orally administered 1 hour before the first trial on each day of the learning trials and 1 hour before the trial on the day of the probe trials. […]
In learning trials, the animal was put into water and goal latency and swimming distance to reach the platform were measured (measurement time: 90 seconds at the longest) by a video image behavioral analysis device (Etho Vision XT, Noldus Information Technology Inc.). […]
In probe trials, the platform was removed from the pool. The animal was put into water, and the swimming time in the quadrant where the platform had been located in the learning trials and the frequency of entry into the platform area where the platform had been located in the learning trials were measured by Etho Vision XT.
Each value was shown as an average and a standard error (n=10). The statistical significance between a control group and a vehicle group was analyzed by the independent t-test. The statistical significance between the vehicle group and each sample group was analyzed by one-way analysis of variance and then by Dunnett's multiple comparison test. […]

Measured: Goal latency [mean ± SEM]

O=C(N[C@H]1CCCC[C@@H]1O)c1cn(Cc2ccc(F)cc2)c2cccnc12 [Example 5, 1-(4-Fluorobenzyl)-N-((1S,2S)-2-hydroxycyclohexyl)-1H-pyrrolo[3,2-b]pyridine-3-carboxamide]
[90 ± 0.00] sec.: Trial 1, 0.1 mg/kg p.o. | Trial 1, 0.3 mg/kg p.o. | Trial 2, 0.1 mg/kg p.o.
